Measured values taken from patent US12371424B2, “Processes for the preparation of furazanobenzimidazoles and crystalline forms thereof” (Glioblastoma Foundation, Inc., priority 2017, dated 2025).

How the values were obtained:
[1] = Dynamic vapor sorption (DVS) moisture sorption isotherm; format: physicochemical; conditions: for water absorption up to 85% RH / water absorption up to 95% RH: DVS, ca. 25° C.
Procedure: Differences in hygroscopicity of the various forms of a solid material provided a measure of their relative stability at increasing relative humidity. Moisture sorption isotherms were obtained using a DVS-1 system from Surface Measurement Systems (London, UK). The relative humidity was varied during sorption-desorption (see specific experiment) at a constant temperature of ca. 25° C. At the end of the DVS experiment the sample was measured by XRPD.
The dynamic vapor sorption (DVS) analysis for the crystalline Form E of the dichloride salt of the compound of formula I is depicted in FIG. 11.
See Example 5f for experimental details. The DVS analysis for the crystalline System A+M of the dichloride salt of the compound of formula I is depicted in FIG. 35.

[2] = Polymorphic stability (XRPD, climate chamber storage)
Procedure: XRPD patterns were obtained using a high-throughput XRPD set-up. The plates were mounted on a Bruker GADDS diffractometer equipped with a Hi-Star area detector. The XRPD platform was calibrated using Silver Behenate for the long d-spacings and Corundum for the short d-spacings. Data collection was carried out at room temperature using monochromatic CuKo radiation in the 20 region between 1.5° and 41.5°, which is the most distinctive part of the XRPD pattern. The diffraction pattern of each well was collected in two 20 ranges (1.5° 20≤21.5° for the first frame, and 19.5°% 20≤41.5° for the second) with an exposure time of 90 s for each frame. No background subtraction or curve smoothing was applied to the XRPD patterns. The carrier material used during XRPD analysis was transparent to X-rays and contributed only slightly to the background.
For variable humidity (VH) and variable temperature (VT) experiments a ANSYCO HT chamber was used, installed within a D8 Advance system diffractometer (Bruker) designed with Bragg-Brentano geometry and equipped with LynxEye solid state detector. The radiation used for collecting the data was CuKαl (2=1.54056 Å) monochromatized by germanium crystal. The material was placed on a fixed sample holder that was mounted inside the chamber.
VH-XRPD: The humidity was applied locally and varied from 10 to 70% (dew point). […]

[3] = Thermodynamic pH-dependent solubility; conditions: room temperature, 24 h
Procedure: The thermodynamic pH-dependent solubility was performed in unbuffered water as well as using standard Merck Titriplex® buffers (Merck Titrisol® buffer pH 3 with citrate and HCl; Merck Titrisol® buffer pH 4 with citrate and HCl; Merck Titrisol® buffer pH 5 with citrate and NaOH; Merck Titrisol® buffer pH 6 with citrate and NaOH; Merck Titrisol® buffer pH 7 with phosphate; for buffering at pH 4.5 a 50/50 mixture of buffers for pH 4 and 5 was used; for buffering at pH 5.5 a 50/50 mixture of buffers for pH 5 and 6 was used).
For each experiment, an 8 mL screw cap vial was prepared with the polymorphic material, the buffer solvent according to the target pH and a magnetic stirring bar. Each pH data point was determined in triplicate with a target pH of 3, 4, 4.5, 5, 5.5 and 7. The pH was measured (Fisherbrand pH meter Hydrus 400, a three point calibration was performed prior to measurement) and adjusted with 1M NaOH solution. […] After 24 h the pH was monitored and the slurries were centrifuged for 10 min at 3000 rpm to separate the solids and liquids and filtered (0.45 micron disk filter). […] Concentrations of the compound of formula I were determined by High Performance Liquid Chromatography with Diode Array Detection analysis (HPLC-DAD). […]
HPLC testing was performed on Agilent 1100 with DAD detector at 280 nm wavelength. A LOQ of 11 μg/mL was determined, linearity is given up to ca. 0.7 mg/mL. […]

Compound | water absorption up to 85% RH [1] | water absorption up to 95% RH [1] | polymorphic form after 2 days at 40° C./75% RH ([2]; wet solid treated 2 days at 40° C./75% RH) | hysteresis in DVS ([1]; isothermic (24.9° C.) DVS, 0→95→0% RH) | maximum mass change ([1]; isothermic (24.9° C.) DVS, 0→95→0% RH in steps of 10% RH, at 95% RH) | solubility (in words) [3] | polymorphic stability (in words) ([2]; listed as System A+X)
N#CCCNc1nonc1-c1nc2ccccc2n1CC(=O)c1ccc(NC(=O)[C@@H](N)CCCCN)cc1 [Form E] | 1% | ca. 4% | Form E | – | – | – | –
N#CCCNc1nonc1-c1nc2ccccc2n1CC(=O)c1ccc(NC(=O)[C@@H](N)CCCCN)cc1 [Mixture A1+M4] | – | – | – | No hysteresis was observed | 34% | – | –
N#CCCNc1nonc1-c1nc2ccccc2n1CC(=O)c1ccc(NC(=O)[C@@H](N)CCCCN)cc1 [System A+M] | ca. 22% | < 34% | – | – | – | good solubility | polymorphically stable
